Data on 1 compound can be found in patent publication US6992088B2, “Nitro and amino substituted heterocycles as topoisomerase I targeting agents” (Rutgers, The State University of New Jersey, priority 2002, dated 2006).

One data set concerns RPMI8402. In words: MTT-microtiter plate tetrazolinium cytotoxicity assay, RPMI8402. In kind it is cell-based. Particulars: Homo sapiens, RPMI 8402, RPMI8402 cells, continuous exposure 3-4 days. On the procedure: (§1) Test B. Inhibition of Cell Growth: MTT-microtiter Plate Tetrazolinium Cytotoxicity Assay (RPMI 8402, CPT-K5, U937, U937/CR Cells)
(§2) The cytotoxicity is determined using the MTT-microtiter plate tetrazolinium cytotoxicity assay (MTA), see Chen A. Y. et al. Cancer Res. 1993, 53, 1332; Mosmann, T. J., J. Immunol. Methods 1983, 65, 55; and Carmichael, J. et al. Cancer Res. 1987, 47, 936. The human lymphoblast RPMI 8402 and its camptothecin-resistant variant cell line, CPT-K5 were provided by Dr. Toshiwo Andoh (Anchi Cancer Research Institute, Nagoya, Japan), see Andoh, T.; Okada, K, Adv. in Pharmacology 1994, 29B, 93. Human U-937 myeloid leukemia cells and U-937/CR cells were described by Rubin et al., J. Biol. Chem., 1994, 269, 2433-2439. The cytotoxicity assay is performed by using 96-well microtiter plates using 2000 cells/well, in […] of growth medium. Cells are grown in suspension at 37° C. in 5% CO2 and maintained by regular passage in RPMI medium supplemented with 10% heat-inactivated fetal bovine serum, L-glutamine (2 mM), penicillin (100U/mL), and streptomycin (0.1 mg/mL). For determination of IC50, cells are exposed continuously for 3-4 days to varying concentrations of drug, and MTT assays were performed at the end of the fourth day. […] All assays are performed at least twice in 6 replicate wells. […]

For the next data set, the system named is CPT-K5. In words: MTT-microtiter plate tetrazolinium cytotoxicity assay, CPT-K5 (camptothecin-resistant variant). In kind it is cell-based. Particulars: Homo sapiens, CPT-K5 cells (camptothecin-resistant variant of RPMI 8402), continuous exposure 3-4 days. The method, then:
as §1, §2

Another data set concerns KB3-1. Nature of the data set: MTT-microtiter plate tetrazolinium cytotoxicity assay, KB3-1. In kind it is cell-based. Particulars: Homo sapiens, KB 3-1, KB3-1 cells. On the procedure: as §1, §2
A further data set has as its system KBV-1. In words: MTT-microtiter plate tetrazolinium cytotoxicity assay, KBV-1. It is filed as cell-based. The settings on record: Homo sapiens, KB-V1, KBV-1 cells. The method, then: as §1, §2
The test system of a further data set is KBH5.0. Nature of the data set: MTT-microtiter plate tetrazolinium cytotoxicity assay, KBH5.0. Particulars: KBH5.0 cells. It is filed as cell-based. The method, then:
as §1, §2

A further data set concerns HL60. In words: MTT-microtiter plate tetrazolinium cytotoxicity assay, HL60. It is filed as cell-based. The settings on record: Homo sapiens, HL-60, HL60 cells. On the procedure: as §1, §2
A further data set concerns HL60/MX2. In words: MTT-microtiter plate tetrazolinium cytotoxicity assay, HL60/MX2. It is filed as cell-based. The settings on record: Homo sapiens, HL60/MX2 cells. On the procedure: as §1, §2

For orientation: IC50 means the concentration that gives 50% inhibition. A higher IC50 goes with lower potency. As a reminder, the melting point is the temperature, or range, at which the solid turns liquid. The compound `CN(C)CCCn1c2c(c3ccc([N+](=O)[O-])cc3c1=O)C(=O)c1cc3c(cc1-2)OCO3` [Compound B] came in with a melting point of 191 to 192 °C. For the same compound, in the data set on RPMI8402, it took 0.003 µM to reach half-maximal inhibition (IC50). The compound further showed an IC50 with CPT-K5 of 2.4 µM. Moreover, the IC50 in the data set with KB3-1 stood at 0.004 µM. This compound gave an IC50 in the data set with KBV-1 of 0.004 µM. In the data set with KBH5.0, the IC50 turned out to be 0.004 µM. In the data set on HL60, this compound returned an IC50 of 0.003 µM. Moreover, in the data set with HL60/MX2, half-maximal inhibition (IC50) required 0.003 µM.
